Results published in patent publication US7807368B2, “Cyclin-dependent kinase inhibitors as targets for opiod growth factor treatment” (priority 2006, dated 2010).

Columns and labels:
Format in all cases: cell-based, human
Cdk2 kinase activity = experiment: Immunoprecipitation and H1 kinase assay (Cdk2 kinase activity) in BxPC-3 cells
Experimental: To quantify expression levels or kinase activity, the optical density of each band was determined by densitometry and analyzed by QuickOne (Bio-Rad Laboratories). Each value was normalized to β-actin from the same blot. To report the changes due to OGF treatment, we calculated the fold increase by dividing the normalized value from the OGF treated samples by the normalized value of control samples at each time point; thus, increases due to OGF have values greater than one, and decreases due to OGF have values less than one. For all Western blot analyses, 3 or more independent experiments were performed.
To immunoprecipitate protein complexes, cell extracts were prepared as follows: 2×10^6 cells per sample were rinsed in cold PBS followed by lysis in 200 μl immunoprecipitation buffer (1% NP-40, 10 mM HEPES (pH 7.5), 200 mM NaCl, 5 mM EDTA, 50 mM NaF, 0.2 mM sodium orthovanidate, 1 mM phenylmethyl sulfonyl fluoride, 2 mM dithiothreitol), 1× Halt™ protease inhibitorcocktail (Pierce, Rockford, Ill.)). For each immunoprecipitation reaction mixture, a total of 500 μg of protein extract was used. To each sample, 50 μl of protein A beads (Santa Cruz Biotechnology) were added and incubated at 40° C. for 30 min with rotation. Beads were removed by centrifugation at 14000 rpm for 15 s. The lysates were then subjected to immunoprecipitation using 10 μl of polyclonal antibody against Cdk2 and incubated at 40° C. for 1.5 hours with rotation, followed by addition of 20 μl of protein A beads as the immune complex binding agent.
Samples were further incubated at 40 C for 1 hour with rotation. Beads were pelleted by centrifugation at 14000 rpm for 15 s, washed three times with 500 μl ice-cold immunoprecipitation wash buffer (1% NP-40, 50 mM HEPES, 150 mM NaCl, 1 mM EDTA, 1 mM dithiothreitol), and followed by two washes with ice-cold H1 kinase buffer (50 mM HEPES (pH 7.5), 10 mM MgCl2, 10 mM MnCl2, 1 mM dithiothreitol). Immunoprecipitates were incubated with 10 μCi γ^32P-ATP, and 1 μg of histone H1 (Roche) as the substrate for Cdk2. After incubation for 30 min at 30° C., with occasional mixing, the reaction was stopped by the addition of 2× sample loading buffer (Santa Cruz Biotechnology). Proteins were separated by a 12% SDS-PAGE gel, and the Cdk2 kinase activity pattern was visualized by autoradiography of phosphorylated H1.

BxPC-3 cells = experiment: Growth of BxPC-3 cells transfected with p21 siRNA or negative control siRNA; conditions: for reduction in growth: negative control siRNA-transfected BxPC-3 cells
Experimental: (§1) The p21-targeted siRNAs were obtained from Santa Cruz Biotechnology, and negative control siRNAs were purchased from Ambion (Ambion, Inc., Austin, Tex.). For transfection, 2×10^5 cells per well were seeded in 6-well plates containing 1 ml of media without antibiotics. For each well, 1 μl of siRNA stock (20 μM) was mixed with 175 μl of serum-free media. Two μl of Oligofectamine reagent (Invitrogen, Carlsbad, Calif.) was added to prewashed cells in each well, making the final concentration for siRNA approximately 20 nM. Cells were incubated for 4 hours at 37° C. prior to the addition of OGF. Eighteen hours later, 1 ml fresh complete media with or without OGF was added to the cultures; media and OGF were replaced daily. At the indicated time points, cells were collected for growth curves or Western blotting.

PANC-1 cells = experiment: Growth curves of PANC-1 cells transfected with p21 siRNA or negative control siRNA; conditions: for decrease of growth: PANC-1 cells transfected with negative control siRNAs
Experimental: Human pancreatic cancer cell lines BxPC-3, PANC-1, and Capan-2 were obtained from the American Type Culture Collection (Manassas, Va.), and cultured in RPMI, Dulbecco's Modified Medium, or McCoy's 5A medium, respectively. All media were supplemented with 10% fetal bovine serum, 1.2% sodium bicarbonate, and 0.25% antibiotics (5000 units/ml penicillin, 5 μg/ml streptomycin and 10 μg/ml neomycin). OGF was purchased from Sigma-Aldrich (St. Louis, Mo.), dissolved in sterile water, and used at a final concentration of 10^−6 M.
as §1

Question: How did the “Cdk2 kinase activity vs control cells at each respective time point” value (Cdk2 kinase activity; OGF for 15, 18 or 21 hours (FIG. 5)) turn out when [Met^5]-enkephalin [OGF] was run?
Answer: significantly reduced

Question: What about the “decrease in Cdk2 kinase activity compared to control” value (“decrease in Cdk2 kinase activity” for short) (Cdk2 kinase activity; OGF for 15 hours) of the same substance?
Answer: 78%

Question: And the “decrease in Cdk2 kinase activity” value (Cdk2 kinase activity; OGF for 18 hours)?
Answer: 46%

Question: What about the “decrease in Cdk2 kinase activity” value (Cdk2 kinase activity; OGF for 21 hours) of the same substance?
Answer: 82%

Question: And the “effect on cell growth of cells transfected with p21 siRNA” value (BxPC-3 cells; BxPC-3 cells, 10^-6 M OGF)?
Answer: no effect

Question: What about the “Cell numbers vs transfected cells receiving sterile water” value (BxPC-3 cells; BxPC-3 cultures transfected with negative control siRNA, 10^-6 M OGF (FIG. 8)) of the same substance?
Answer: significantly reduced

Question: What about the reduction in growth (BxPC-3 cells; 10^-6 M OGF, 48 hours) of the same substance?
Answer: 17.8%

Question: What about the reduction in growth (BxPC-3 cells; 10^-6 M OGF, 72 hours) of the same substance?
Answer: 28.6%

Question: What about the reduction in growth (BxPC-3 cells; 10^-6 M OGF, 96 hours) of the same substance?
Answer: 35.8%

Question: And the reduction in growth (BxPC-3 cells; 10^-6 M OGF, 120 hours)?
Answer: 33.0%

Question: What about the decrease of growth (PANC-1 cells; 72 hours) of the same substance?
Answer: 34.1%

Question: And the decrease of growth (PANC-1 cells; 96 hours)?
Answer: 35.5%

Question: What about the “effect on growth of cells lacking p21” value (PANC-1 cells; PANC-1 cells transfected with p21 siRNA) of the same substance?
Answer: no inhibitory effect
